Measurements reported in ChEMBL document CHEMBL1139605, “Novel ketal ligands for the glucocorticoid receptor: in vitro and in vivo activity” (Bioorg Med Chem Lett, 2005).

Columns and labels:
Glucocorticoid receptor [1] = molecular target: T1, Glucocorticoid receptor (Homo sapiens, UniProt P04150); assay: Inhibition of human glucocorticoid receptor alpha isoform
T1 sequence (P04150 whole entry): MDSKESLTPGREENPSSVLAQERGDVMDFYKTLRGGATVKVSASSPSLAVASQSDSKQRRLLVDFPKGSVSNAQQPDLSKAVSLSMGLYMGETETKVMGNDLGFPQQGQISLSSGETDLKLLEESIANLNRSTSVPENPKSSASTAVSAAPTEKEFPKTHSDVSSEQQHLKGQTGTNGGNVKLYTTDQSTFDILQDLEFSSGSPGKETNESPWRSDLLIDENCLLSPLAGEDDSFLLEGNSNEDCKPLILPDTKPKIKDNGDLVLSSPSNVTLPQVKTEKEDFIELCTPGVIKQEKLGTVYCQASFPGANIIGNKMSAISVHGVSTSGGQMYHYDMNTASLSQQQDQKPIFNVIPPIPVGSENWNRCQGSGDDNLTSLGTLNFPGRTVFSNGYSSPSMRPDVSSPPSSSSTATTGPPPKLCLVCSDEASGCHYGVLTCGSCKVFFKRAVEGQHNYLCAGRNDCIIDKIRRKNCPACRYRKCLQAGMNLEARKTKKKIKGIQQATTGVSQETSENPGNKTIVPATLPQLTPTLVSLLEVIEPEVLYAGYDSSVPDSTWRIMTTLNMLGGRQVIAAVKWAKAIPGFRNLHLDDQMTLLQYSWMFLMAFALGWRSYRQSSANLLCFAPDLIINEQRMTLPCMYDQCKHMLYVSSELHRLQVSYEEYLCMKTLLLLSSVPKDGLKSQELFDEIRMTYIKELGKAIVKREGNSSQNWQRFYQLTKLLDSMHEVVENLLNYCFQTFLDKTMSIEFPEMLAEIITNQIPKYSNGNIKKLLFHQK

[2] = Effective concentration required for induction of glutamine synthetase in human skeletal muscle cells using 58% radiolabeled Dexamethasone; type: functional
Mus musculus [3] = organism: Mus musculus; assay: Effective concentration required for inhibition of interleukin-6 in mouse thioglycolate-elicited peritoneal exudate cell line using 66% radiolabeled Dexamethasone; type: functional
Estrogen receptor = molecular target: T2, Estrogen receptor (Homo sapiens, UniProt P03372); assay: Binding affinity for human estrogen receptor alpha
T2 sequence (P03372 whole entry): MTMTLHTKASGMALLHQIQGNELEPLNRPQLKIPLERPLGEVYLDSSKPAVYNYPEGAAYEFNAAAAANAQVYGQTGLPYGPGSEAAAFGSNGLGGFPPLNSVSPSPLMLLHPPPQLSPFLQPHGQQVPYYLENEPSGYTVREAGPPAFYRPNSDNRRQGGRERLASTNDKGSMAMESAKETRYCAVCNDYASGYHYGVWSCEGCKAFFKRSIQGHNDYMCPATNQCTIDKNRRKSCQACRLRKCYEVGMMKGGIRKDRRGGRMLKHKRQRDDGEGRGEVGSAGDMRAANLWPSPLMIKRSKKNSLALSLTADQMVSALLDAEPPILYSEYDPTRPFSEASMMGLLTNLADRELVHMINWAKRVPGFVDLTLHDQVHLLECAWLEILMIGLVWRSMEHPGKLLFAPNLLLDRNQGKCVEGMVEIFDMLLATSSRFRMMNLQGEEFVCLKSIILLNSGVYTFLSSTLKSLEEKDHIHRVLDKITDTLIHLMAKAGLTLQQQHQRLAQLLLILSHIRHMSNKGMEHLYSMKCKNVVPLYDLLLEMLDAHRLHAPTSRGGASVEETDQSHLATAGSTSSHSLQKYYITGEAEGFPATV

Glucocorticoid receptor [4] = molecular target: T1, Glucocorticoid receptor; assay: Binding affinity for human glucocorticoid receptor
Estrogen receptor beta = Estrogen receptor beta (Homo sapiens, UniProt Q92731); assay: Binding affinity for human estrogen receptor beta
[5] = molecular target: T3, Mineralocorticoid receptor (Rattus norvegicus, UniProt P22199); assay: Binding affinity for rat mineralocorticoid receptor
T3 sequence (P22199 whole entry): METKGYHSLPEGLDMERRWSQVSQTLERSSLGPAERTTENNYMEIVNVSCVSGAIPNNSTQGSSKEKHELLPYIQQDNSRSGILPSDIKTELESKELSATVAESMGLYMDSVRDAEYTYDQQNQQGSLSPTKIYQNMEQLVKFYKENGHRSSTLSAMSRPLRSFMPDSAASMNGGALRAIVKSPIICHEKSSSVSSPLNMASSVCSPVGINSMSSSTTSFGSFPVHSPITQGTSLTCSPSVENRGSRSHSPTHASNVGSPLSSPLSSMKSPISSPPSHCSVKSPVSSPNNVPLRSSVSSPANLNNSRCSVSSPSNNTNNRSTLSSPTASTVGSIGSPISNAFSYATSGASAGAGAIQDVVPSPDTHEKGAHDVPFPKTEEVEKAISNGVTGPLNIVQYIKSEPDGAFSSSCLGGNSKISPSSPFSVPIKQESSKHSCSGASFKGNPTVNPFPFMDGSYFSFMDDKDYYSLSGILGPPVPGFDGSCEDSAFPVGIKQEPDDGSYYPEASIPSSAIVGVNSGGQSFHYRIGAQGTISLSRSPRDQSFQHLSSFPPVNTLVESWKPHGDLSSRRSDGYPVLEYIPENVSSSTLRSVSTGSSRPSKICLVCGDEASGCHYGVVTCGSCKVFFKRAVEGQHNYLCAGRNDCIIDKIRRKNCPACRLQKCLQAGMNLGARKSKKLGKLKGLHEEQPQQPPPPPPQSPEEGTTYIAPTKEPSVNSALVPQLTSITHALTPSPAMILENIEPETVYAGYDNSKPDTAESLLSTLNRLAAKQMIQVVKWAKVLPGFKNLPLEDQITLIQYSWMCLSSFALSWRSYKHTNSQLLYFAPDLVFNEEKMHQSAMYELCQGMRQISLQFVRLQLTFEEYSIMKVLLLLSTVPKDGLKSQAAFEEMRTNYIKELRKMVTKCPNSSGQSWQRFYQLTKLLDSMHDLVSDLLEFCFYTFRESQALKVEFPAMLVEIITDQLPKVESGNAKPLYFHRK

Progesterone receptor = molecular target: T4, Progesterone receptor (Homo sapiens, UniProt P06401); assay: Binding affinity for human progesterone receptor
T4 sequence (P06401 whole entry): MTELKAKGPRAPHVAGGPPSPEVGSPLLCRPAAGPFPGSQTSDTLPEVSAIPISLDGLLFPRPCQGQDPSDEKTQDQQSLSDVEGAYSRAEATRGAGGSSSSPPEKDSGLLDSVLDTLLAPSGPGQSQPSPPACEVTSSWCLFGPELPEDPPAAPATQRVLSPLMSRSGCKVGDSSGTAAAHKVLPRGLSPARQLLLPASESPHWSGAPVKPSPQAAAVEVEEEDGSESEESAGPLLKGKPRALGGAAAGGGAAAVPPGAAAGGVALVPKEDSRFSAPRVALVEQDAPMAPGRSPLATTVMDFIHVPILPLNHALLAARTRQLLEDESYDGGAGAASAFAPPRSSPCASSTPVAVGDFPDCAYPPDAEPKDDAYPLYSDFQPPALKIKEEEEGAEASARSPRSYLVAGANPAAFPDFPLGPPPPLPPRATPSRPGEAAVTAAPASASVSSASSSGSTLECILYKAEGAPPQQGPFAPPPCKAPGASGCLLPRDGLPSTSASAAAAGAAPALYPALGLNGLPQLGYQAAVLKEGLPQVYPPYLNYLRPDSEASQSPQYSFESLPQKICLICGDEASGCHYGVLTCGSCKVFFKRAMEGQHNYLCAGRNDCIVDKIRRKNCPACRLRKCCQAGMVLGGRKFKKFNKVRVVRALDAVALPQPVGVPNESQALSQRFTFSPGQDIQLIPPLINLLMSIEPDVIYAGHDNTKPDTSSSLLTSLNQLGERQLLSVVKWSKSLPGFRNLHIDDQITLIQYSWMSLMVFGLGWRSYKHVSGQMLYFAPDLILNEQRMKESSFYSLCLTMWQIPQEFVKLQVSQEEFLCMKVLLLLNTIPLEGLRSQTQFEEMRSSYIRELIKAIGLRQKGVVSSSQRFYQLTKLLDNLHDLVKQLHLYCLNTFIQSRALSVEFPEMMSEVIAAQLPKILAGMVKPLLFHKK

Mus musculus [6] = organism: Mus musculus; assay: Effective concentration required for inhibition of interleukin-6 in mouse thioglycolate-elicited peritoneal exudate cell line using 79% radiolabeled Dexamethasone; type: functional
A549 [7] = assay: Effective concentration for inhibition of interleukin-6 in human A549 lung carcinoma cell line using 67% radiolabeled Dexamethasone; type: functional, cell-based
A549 [8] = assay: Effective concentration required for inhibition of interleukin-6 in human A549 lung carcinoma cell line using […]% radiolabeled Dexamethasone; type: functional, cell-based

Chain of Estrogen receptor beta (Q92731 whole entry): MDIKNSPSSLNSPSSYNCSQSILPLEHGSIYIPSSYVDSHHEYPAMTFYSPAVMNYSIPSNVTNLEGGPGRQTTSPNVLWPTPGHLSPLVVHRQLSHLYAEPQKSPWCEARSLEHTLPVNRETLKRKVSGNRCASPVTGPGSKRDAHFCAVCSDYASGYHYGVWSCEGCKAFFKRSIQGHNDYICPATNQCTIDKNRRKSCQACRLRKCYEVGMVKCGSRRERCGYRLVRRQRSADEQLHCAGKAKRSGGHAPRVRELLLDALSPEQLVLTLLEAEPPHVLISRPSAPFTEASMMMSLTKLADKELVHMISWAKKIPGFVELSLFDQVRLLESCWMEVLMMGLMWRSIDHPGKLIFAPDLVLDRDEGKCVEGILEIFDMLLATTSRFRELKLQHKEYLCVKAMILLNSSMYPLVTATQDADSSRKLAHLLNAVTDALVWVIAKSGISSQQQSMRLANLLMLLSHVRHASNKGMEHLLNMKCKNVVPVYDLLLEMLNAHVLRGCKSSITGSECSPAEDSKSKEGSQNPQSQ

C=C[C@@H]1CO[C@@]2(CCC3=Cc4c(cnn4-c4ccc(F)cc4)C[C@@]32C)O1
IC50 (Glucocorticoid receptor [1]): 38 nM

CCC[C@H]1OC2(CCCC3=Cc4c(cnn4-c4ccc(F)cc4)C[C@@]32C)O[C@@H]1CCC
IC50 (Glucocorticoid receptor [1]): 8.9 nM
EC50 [2]: 29 nM

C[C@]12Cc3cnn(-c4ccc(F)cc4)c3C=C1CCCC21O[C@H](c2ccccc2)[C@@H](c2ccccc2)O1
EC50 (Mus musculus [3]): 26 nM
IC50 (Glucocorticoid receptor [1]): 10 nM

C[C@H]1OC2(CCC3=Cc4c(cnn4-c4ccc(F)cc4)C[C@@]32C)O[C@@H]1C
IC50 (Estrogen receptor): > 10000 nM
IC50 (Glucocorticoid receptor [4]): 24 nM
IC50 (Estrogen receptor beta): > 10000 nM
IC50 (Glucocorticoid receptor [1]): 24 nM
IC50 [5]: > 10000 nM
IC50 (Progesterone receptor): > 1000 nM

C[C@]12Cc3cnn(-c4ccc(F)cc4)c3C=C1CC[C@@]21OC[C@H](c2ccccc2)O1
IC50 (Glucocorticoid receptor [1]): 65 nM

C[C@@H]1C[C@@H](C)OC2(CCCC3=Cc4c(cnn4-c4ccc(F)cc4)C[C@@]32C)O1 (stereo not given in full)
IC50 (Glucocorticoid receptor [1]): 8.3 nM

C[C@]12Cc3cnn(-c4ccc(F)cc4)c3C=C1CC[C@@]21OC[C@@H](c2ccccc2)O1
IC50 (Glucocorticoid receptor [1]): 26 nM

C/C=C/[C@H]1OC2(CCCC3=Cc4c(cnn4-c4ccc(F)cc4)C[C@@]32C)O[C@@H]1/C=C/C
EC50 (Mus musculus [6]): 37 nM
EC50 (A549 [7]): 7.8 nM
IC50 (Glucocorticoid receptor [1]): 2.5 nM

C[C@]12Cc3cnn(-c4ccc(F)cc4)c3C=C1CCCC21OCCO1
IC50 (Estrogen receptor): > 10000 nM
IC50 (Glucocorticoid receptor [4]): 14 nM
IC50 (Estrogen receptor beta): > 10000 nM
IC50 (Glucocorticoid receptor [1]): 14 nM
IC50 [5]: 7560 nM
IC50 (Progesterone receptor): > 1000 nM

CCCC[C@H]1OC2(CCCC3=Cc4c(cnn4-c4ccc(F)cc4)C[C@@]32C)O[C@@H]1CCCC
IC50 (Glucocorticoid receptor [1]): 22 nM
EC50 (A549 [8]): 92 nM
